According to PubChem BioAssay (NCI):
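Method: 48-hour compound exposure of cells in 96-well plates, five concentrations, linear interpolation of endpoints. Here, GI50 denotes the concentration required for 50% inhibition of growth. TGI marks complete inhibition of growth.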

Experiments:
Assay in all cases: NCI-60 cell line screen, 48 h
TK-10 renal = system: TK-10 renal
CAKI-1 renal = system: CAKI-1 renal
MCF7 breast = system: MCF7 breast
786-0 renal = system: 786-0 renal
OVCAR-4 ovarian = system: OVCAR-4 ovarian
PC-3 prostate = system: PC-3 prostate
HOP-92 NSCLC = system: HOP-92 NSCLC
SK-OV-3 ovarian = system: SK-OV-3 ovarian
MALME-3M melanoma = system: MALME-3M melanoma
HS 578T breast = system: HS 578T breast
HCT-15 colon = system: HCT-15 colon
OVCAR-8 ovarian = system: OVCAR-8 ovarian
UACC-62 melanoma = system: UACC-62 melanoma
NCI-H226 lung = system: NCI-H226 lung
U251 CNS = system: U251 CNS
HOP-62 NSCLC = system: HOP-62 NSCLC
SF-268 CNS = system: SF-268 CNS
BT-549 breast = system: BT-549 breast
COLO 205 colon = system: COLO 205 colon
SF-295 CNS = system: SF-295 CNS
LOX IMVI melanoma = system: LOX IMVI melanoma
RXF 393 renal = system: RXF 393 renal
SF-539 CNS = system: SF-539 CNS
SR leukemia = system: SR leukemia
UO-31 renal = system: UO-31 renal
A549 NSCLC = system: A549 NSCLC
T-47D breast = system: T-47D breast
SN12C renal = system: SN12C renal
OVCAR-5 ovarian = system: OVCAR-5 ovarian
EKVX NSCLC = system: EKVX NSCLC
SK-MEL-28 melanoma = system: SK-MEL-28 melanoma
HCT-116 colon = system: HCT-116 colon
ACHN renal = system: ACHN renal
NCI-H522 lung = system: NCI-H522 lung
SNB-19 CNS = system: SNB-19 CNS
IGROV1 ovarian = system: IGROV1 ovarian
MOLT-4 leukemia = system: MOLT-4 leukemia
KM12 colon = system: KM12 colon
HL-60(TB) leukemia = system: HL-60(TB) leukemia
SNB-75 CNS = system: SNB-75 CNS
MDA-MB-231 breast = system: MDA-MB-231 breast
M14 melanoma = system: M14 melanoma
OVCAR-3 ovarian = system: OVCAR-3 ovarian
UACC-257 melanoma = system: UACC-257 melanoma
K-562 leukemia = system: K-562 leukemia
MDA-MB-435 = system: MDA-MB-435
SK-MEL-2 melanoma = system: SK-MEL-2 melanoma
A498 renal = system: A498 renal
HT29 colon = system: HT29 colon
SK-MEL-5 melanoma = system: SK-MEL-5 melanoma
DU-145 prostate = system: DU-145 prostate
RPMI-8226 leukemia = system: RPMI-8226 leukemia
SW-620 colon = system: SW-620 colon
HCC-2998 colon = system: HCC-2998 colon
NCI/ADR-RES ovarian = system: NCI/ADR-RES ovarian

## CCOC(=O)Cc1csc(NC(=O)COC(=O)c2ccc(N)cc2)n1
TK-10 renal
  GI50: > 100 µM
  TGI: > 100 µM
CAKI-1 renal
  GI50: > 100 µM
  TGI: > 100 µM
MCF7 breast
  GI50: 97.9 µM
  TGI: > 100 µM
786-0 renal
  GI50: 23.8 µM
  TGI: 56.9 µM
OVCAR-4 ovarian
  GI50: 72 µM
  TGI: > 100 µM
PC-3 prostate
  GI50: 68.4 µM
  TGI: > 100 µM
HOP-92 NSCLC
  GI50: 20.7 µM
  TGI: 44.8 µM
SK-OV-3 ovarian
  GI50: > 100 µM
  TGI: > 100 µM
MALME-3M melanoma
  GI50: > 100 µM
  TGI: > 100 µM
HS 578T breast
  GI50: > 100 µM
  TGI: > 100 µM
HCT-15 colon
  GI50: > 100 µM
  TGI: > 100 µM
OVCAR-8 ovarian
  GI50: 95.7 µM
  TGI: > 100 µM
UACC-62 melanoma
  GI50: > 100 µM
  TGI: > 100 µM
NCI-H226 lung
  GI50: > 100 µM
  TGI: > 100 µM
U251 CNS
  GI50: > 100 µM
  TGI: > 100 µM
HOP-62 NSCLC
  GI50: > 100 µM
  TGI: > 100 µM
SF-268 CNS
  GI50: 23.6 µM
  TGI: 60 µM
BT-549 breast
  GI50: > 100 µM
  TGI: > 100 µM
COLO 205 colon
  GI50: > 100 µM
  TGI: > 100 µM
SF-295 CNS
  GI50: > 100 µM
  TGI: > 100 µM
LOX IMVI melanoma
  GI50: 14.1 µM
  TGI: 34.6 µM
RXF 393 renal
  GI50: > 100 µM
  TGI: > 100 µM
SF-539 CNS
  GI50: 19.3 µM
  TGI: 37 µM
SR leukemia
  GI50: 13.4 µM
  TGI: 45.2 µM
UO-31 renal
  GI50: 76.6 µM
  TGI: > 100 µM
A549 NSCLC
  GI50: > 100 µM
  TGI: > 100 µM
T-47D breast
  GI50: 75.4 µM
  TGI: > 100 µM
SN12C renal
  GI50: > 100 µM
  TGI: > 100 µM
OVCAR-5 ovarian
  GI50: 59.3 µM
  TGI: > 100 µM
EKVX NSCLC
  GI50: > 100 µM
  TGI: > 100 µM
SK-MEL-28 melanoma
  GI50: > 100 µM
  TGI: > 100 µM
HCT-116 colon
  GI50: > 100 µM
  TGI: > 100 µM
ACHN renal
  GI50: > 100 µM
  TGI: > 100 µM
NCI-H522 lung
  GI50: 18.8 µM
  TGI: 40 µM
SNB-19 CNS
  GI50: > 100 µM
  TGI: > 100 µM
IGROV1 ovarian
  GI50: 21.8 µM
  TGI: 49.8 µM
MOLT-4 leukemia
  GI50: 28.5 µM
  TGI: 81.4 µM
KM12 colon
  GI50: > 100 µM
  TGI: > 100 µM
HL-60(TB) leukemia
  GI50: 20 µM
  TGI: 41.3 µM
SNB-75 CNS
  GI50: 54.4 µM
  TGI: > 100 µM
MDA-MB-231 breast
  GI50: > 100 µM
  TGI: > 100 µM
M14 melanoma
  GI50: > 100 µM
  TGI: > 100 µM
OVCAR-3 ovarian
  GI50: 18.8 µM
  TGI: 50.7 µM
UACC-257 melanoma
  GI50: > 100 µM
  TGI: > 100 µM
K-562 leukemia
  GI50: 88.3 µM
  TGI: > 100 µM
MDA-MB-435
  GI50: > 100 µM
  TGI: > 100 µM
SK-MEL-2 melanoma
  GI50: > 100 µM
  TGI: > 100 µM
A498 renal
  GI50: > 100 µM
  TGI: > 100 µM
HT29 colon
  GI50: 56.9 µM
  TGI: > 100 µM
SK-MEL-5 melanoma
  GI50: 97.6 µM
  TGI: > 100 µM
DU-145 prostate
  GI50: > 100 µM
  TGI: > 100 µM
RPMI-8226 leukemia
  GI50: 40.4 µM
  TGI: > 100 µM
SW-620 colon
  GI50: > 100 µM
  TGI: > 100 µM
HCC-2998 colon
  GI50: > 100 µM
  TGI: > 100 µM
NCI/ADR-RES ovarian
  GI50: > 100 µM
  TGI: > 100 µM
